Tests used:
[1] = target: T1, Endothelin receptor type B (Rattus norvegicus) (UniProt P21451); assay: Concentration required to produce 50% inhibition of binding against ET B receptor obtained from rat brain membrane
T1 sequence (whole entry): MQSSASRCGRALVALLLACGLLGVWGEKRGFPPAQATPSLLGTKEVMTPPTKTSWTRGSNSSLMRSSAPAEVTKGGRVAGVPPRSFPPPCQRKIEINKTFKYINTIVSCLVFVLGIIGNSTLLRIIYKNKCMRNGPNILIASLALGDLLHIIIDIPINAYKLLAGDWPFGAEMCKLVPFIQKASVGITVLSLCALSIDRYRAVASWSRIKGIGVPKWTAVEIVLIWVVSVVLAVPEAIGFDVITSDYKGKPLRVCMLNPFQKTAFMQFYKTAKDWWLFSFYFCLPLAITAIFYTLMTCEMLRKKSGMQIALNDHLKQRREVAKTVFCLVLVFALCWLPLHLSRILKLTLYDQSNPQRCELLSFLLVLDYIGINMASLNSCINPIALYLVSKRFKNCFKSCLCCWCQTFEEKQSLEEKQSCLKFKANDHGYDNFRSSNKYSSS

[2] = target: T2, Endothelin-1 receptor (Rattus norvegicus) (UniProt P26684); assay: Concentration required to produce 50% inhibition of binding against ET A receptor obtained from rat thoracic aortic membrane
T2 sequence (whole entry): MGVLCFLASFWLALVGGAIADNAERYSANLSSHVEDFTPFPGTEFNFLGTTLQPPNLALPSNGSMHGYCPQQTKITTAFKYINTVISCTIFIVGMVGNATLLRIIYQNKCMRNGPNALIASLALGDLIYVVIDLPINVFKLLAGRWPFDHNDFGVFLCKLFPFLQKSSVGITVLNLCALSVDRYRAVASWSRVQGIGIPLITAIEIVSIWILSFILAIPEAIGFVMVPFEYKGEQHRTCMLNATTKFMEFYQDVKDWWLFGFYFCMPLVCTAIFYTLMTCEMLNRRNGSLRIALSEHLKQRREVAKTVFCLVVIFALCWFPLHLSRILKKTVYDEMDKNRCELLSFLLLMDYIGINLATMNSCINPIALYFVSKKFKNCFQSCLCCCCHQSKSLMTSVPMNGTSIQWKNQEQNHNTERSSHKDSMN

SMILES	pIC50 [1]	pIC50 [2]
CC[C@@H](C)[C@H](NC(=O)[C@H](CC(=O)O)NC(=O)[C@H](CC(C)C)NC(=O)[C@H](Cc1c[nH]cn1)NC(=O)[C@H](CS)NC(=O)[C@H](Cc1ccccc1)NC(=O)[C@H](Cc1ccc(O)cc1)NC(=O)[C@@H](NC(=O)[C@H](CS)NC(=O)[C@H](CCC(=O)O)NC(=O)[C@H](CCCCN)NC(=O)[C@H](CC(=O)O)NC(=O)[C@H](CCSC)NC(=O)[C@H](CC(C)C)NC(=O)[C@H](CO)NC(=O)[C@H](CO)NC(=O)[C@H](CS)NC(=O)[C@H](CO)NC(=O)[C@@H](N)CS)C(C)C)C(=O)N[C@H](C(=O)N[C@@H](Cc1c[nH]c2ccccc12)C(=O)O)c1ccccc1	9.76	8.89
CC[C@@H](C)[C@H](NC(=O)[C@H](CC(=O)O)NC(=O)[C@H](CC(C)C)NC(=O)[C@H](Cc1c[nH]cn1)NC(=O)[C@H](CS)NC(=O)[C@H](Cc1ccccc1)NC(=O)[C@H](Cc1ccc(O)cc1)NC(=O)[C@@H](NC(=O)[C@H](CS)NC(=O)[C@H](CCC(=O)O)NC(=O)[C@H](CCCCN)NC(=O)[C@H](CC(=O)O)NC(=O)[C@H](CCSC)NC(=O)[C@H](CC(C)C)NC(=O)[C@H](CO)NC(=O)[C@H](CO)NC(=O)[C@H](CS)NC(=O)[C@H](CO)NC(=O)[C@@H](N)CS)C(C)C)C(=O)N[C@@H](Cc1c[nH]c2ccccc12)C(=O)N[C@@H](Cc1c[nH]c2ccccc12)C(=O)O	9.77	6.71
CC[C@@H](C)[C@H](NC(=O)[C@H](CC(=O)O)NC(=O)[C@H](CC(C)C)NC(=O)[C@H](Cc1c[nH]cn1)NC(=O)[C@H](CS)NC(=O)[C@H](Cc1ccccc1)NC(=O)[C@H](Cc1ccc(O)cc1)NC(=O)[C@@H](NC(=O)[C@H](CS)NC(=O)[C@H](CCC(=O)O)NC(=O)[C@H](CCCCN)NC(=O)[C@H](CC(=O)O)NC(=O)[C@H](CCSC)NC(=O)[C@H](CC(C)C)NC(=O)[C@H](CO)NC(=O)[C@H](CO)NC(=O)[C@H](CS)NC(=O)[C@H](CO)NC(=O)[C@@H](N)CS)C(C)C)C(=O)N[C@@H](C(=O)N[C@@H](Cc1c[nH]c2ccccc12)C(=O)O)c1ccccc1	8.6	6.85
CC[C@@H](C)[C@H](NC(=O)[C@H](CC(=O)O)NC(=O)[C@H](CC(C)C)NC(=O)[C@H](Cc1c[nH]cn1)NC(=O)[C@H](CS)NC(=O)[C@H](Cc1ccccc1)NC(=O)[C@H](Cc1ccc(O)cc1)NC(=O)[C@@H](NC(=O)[C@H](CS)NC(=O)[C@H](CCC(=O)O)NC(=O)[C@H](CCCCN)NC(=O)[C@H](CC(=O)O)NC(=O)[C@H](CCSC)NC(=O)[C@H](CC(C)C)NC(=O)[C@H](CO)NC(=O)[C@H](CO)NC(=O)[C@H](CS)NC(=O)[C@H](CO)NC(=O)[C@@H](N)CS)C(C)C)C(=O)N[C@H](Cc1ccccc1)C(=O)N[C@@H](Cc1c[nH]c2ccccc12)C(=O)O	8.6	6.07
CC[C@@H](C)[C@H](NC(=O)[C@H](CC(=O)O)NC(=O)[C@H](CC(C)C)NC(=O)[C@H](Cc1c[nH]cn1)NC(=O)[C@H](CS)NC(=O)[C@H](Cc1ccccc1)NC(=O)[C@H](Cc1ccc(O)cc1)NC(=O)[C@@H](NC(=O)[C@H](CS)NC(=O)[C@H](CCC(=O)O)NC(=O)[C@H](CCCCN)NC(=O)[C@H](CC(=O)O)NC(=O)[C@H](CCSC)NC(=O)[C@H](CC(C)C)NC(=O)[C@H](CO)NC(=O)[C@H](CO)NC(=O)[C@H](CS)NC(=O)[C@H](CO)NC(=O)[C@@H](N)CS)C(C)C)C(=O)N[C@H](C(=O)N[C@@H](Cc1c[nH]c2ccccc12)C(=O)O)C1CCCCC1	10	9.88
CC[C@@H](C)[C@H](NC(=O)[C@H](CC(=O)O)NC(=O)[C@H](CC(C)C)NC(=O)[C@H](Cc1c[nH]cn1)NC(=O)[C@H](CS)NC(=O)[C@H](Cc1ccccc1)NC(=O)[C@H](Cc1ccc(O)cc1)NC(=O)[C@@H](NC(=O)[C@H](CS)NC(=O)[C@H](CCC(=O)O)NC(=O)[C@H](CCCCN)NC(=O)[C@H](CC(=O)O)NC(=O)[C@H](CCSC)NC(=O)[C@H](CC(C)C)NC(=O)[C@H](CO)NC(=O)[C@H](CO)NC(=O)[C@H](CS)NC(=O)[C@H](CO)NC(=O)[C@@H](N)CS)C(C)C)C(=O)N[C@@H](C(=O)N[C@@H](Cc1c[nH]c2ccccc12)C(=O)O)C1CCCCC1	9.59	7.04

Other lines, results leading:

pIC50 [1]	pIC50 [2]	SMILES
9.94	7.97	CC[C@@H](C)[C@H](NC(=O)[C@H](CC(=O)O)NC(=O)[C@H](CC(C)C)NC(=O)[C@H](Cc1c[nH]cn1)NC(=O)[C@H](CS)NC(=O)[C@H](Cc1ccccc1)NC(=O)[C@H](Cc1ccc(O)cc1)NC(=O)[C@@H](NC(=O)[C@H](CS)NC(=O)[C@H](CCC(=O)O)NC(=O)[C@H](CCCCN)NC(=O)[C@H](CC(=O)O)NC(=O)[C@H](CCSC)NC(=O)[C@H](CC(C)C)NC(=O)[C@H](CO)NC(=O)[C@H](CO)NC(=O)[C@H](CS)NC(=O)[C@H](CO)NC(=O)[C@@H](N)CS)C(C)C)C(=O)N[C@H](CC(C)C)C(=O)N[C@@H](Cc1c[nH]c2ccccc12)C(=O)O
	7.59	CC[C@@H](C)[C@H](NC(=O)[C@H](CC(=O)O)NC(=O)[C@H](CC(C)C)NC(=O)[C@H](Cc1c[nH]cn1)NC(=O)[C@H](CS)NC(=O)[C@H](Cc1ccccc1)NC(=O)[C@H](Cc1ccc(O)cc1)NC(=O)[C@@H](NC(=O)[C@H](CS)NC(=O)[C@H](CCC(=O)O)NC(=O)[C@H](CCCCN)NC(=O)[C@H](CC(=O)O)NC(=O)[C@H](CCSC)NC(=O)[C@H](CC(C)C)NC(=O)[C@H](CO)NC(=O)[C@H](CO)NC(=O)[C@H](CS)NC(=O)[C@H](CO)NC(=O)[C@@H](N)CS)C(C)C)C(=O)N[C@@H](C(=O)N[C@@H](Cc1c[nH]c2ccccc12)C(=O)O)[C@H](C)CC
	9.93	CC[C@@H](C)[C@H](NC(=O)[C@H](CC(=O)O)NC(=O)[C@H](CC(C)C)NC(=O)[C@H](Cc1c[nH]cn1)NC(=O)[C@H](CS)NC(=O)[C@H](Cc1ccccc1)NC(=O)[C@H](Cc1ccc(O)cc1)NC(=O)[C@@H](NC(=O)[C@H](CS)NC(=O)[C@H](CCC(=O)O)NC(=O)[C@H](CCCCN)NC(=O)[C@H](CC(=O)O)NC(=O)[C@H](CCSC)NC(=O)[C@H](CC(C)C)NC(=O)[C@H](CO)NC(=O)[C@H](CO)NC(=O)[C@H](CS)NC(=O)[C@H](CO)NC(=O)[C@@H](N)CS)C(C)C)C(=O)N[C@H](C(=O)N[C@@H](Cc1c[nH]c2ccccc12)C(=O)O)[C@H](C)CC
5.59	5.27	CC[C@@H](C)[C@H](NC(=O)[C@H](CC(=O)O)NC(=O)[C@H](CC(C)C)NC(=O)[C@H](Cc1c[nH]cn1)NC(=O)[C@H](CS)NC(=O)[C@H](Cc1ccccc1)NC(=O)[C@H](Cc1ccc(O)cc1)NC(=O)[C@@H](NC(=O)[C@H](CS)NC(=O)[C@H](CCC(=O)O)NC(=O)[C@H](CCCCN)NC(=O)[C@H](CC(=O)O)NC(=O)[C@H](CCSC)NC(=O)[C@H](CC(C)C)NC(=O)[C@H](CO)NC(=O)[C@H](CO)NC(=O)[C@H](CS)NC(=O)[C@H](CO)NC(=O)[C@@H](N)CS)C(C)C)C(=O)N[C@H](CCC(N)=O)C(=O)N[C@@H](Cc1c[nH]c2ccccc12)C(=O)O
10	7.6	CCC[C@@H](NC(=O)[C@@H](NC(=O)[C@H](CC(=O)O)NC(=O)[C@H](CC(C)C)NC(=O)[C@H](Cc1c[nH]cn1)NC(=O)[C@H](CS)NC(=O)[C@H](Cc1ccccc1)NC(=O)[C@H](Cc1ccc(O)cc1)NC(=O)[C@@H](NC(=O)[C@H](CS)NC(=O)[C@H](CCC(=O)O)NC(=O)[C@H](CCCCN)NC(=O)[C@H](CC(=O)O)NC(=O)[C@H](CCSC)NC(=O)[C@H](CC(C)C)NC(=O)[C@H](CO)NC(=O)[C@H](CO)NC(=O)[C@H](CS)NC(=O)[C@H](CO)NC(=O)[C@@H](N)CS)C(C)C)[C@H](C)CC)C(=O)N[C@@H](Cc1c[nH]c2ccccc12)C(=O)O
9.4	7.53	CC[C@@H](C)[C@H](NC(=O)[C@H](CC(=O)O)NC(=O)[C@H](CC(C)C)NC(=O)[C@H](Cc1c[nH]cn1)NC(=O)[C@H](CS)NC(=O)[C@H](Cc1ccccc1)NC(=O)[C@H](Cc1ccc(O)cc1)NC(=O)[C@@H](NC(=O)[C@H](CS)NC(=O)[C@H](CCC(=O)O)NC(=O)[C@H](CCCCN)NC(=O)[C@H](CC(=O)O)NC(=O)[C@H](CCSC)NC(=O)[C@H](CC(C)C)NC(=O)[C@H](CO)NC(=O)[C@H](CO)NC(=O)[C@H](CS)NC(=O)[C@H](CO)NC(=O)[C@@H](N)CS)C(C)C)C(=O)N[C@@H](C)C(=O)N[C@@H](Cc1c[nH]c2ccccc12)C(=O)O
7.96	5.77	CC[C@@H](C)[C@H](NC(=O)[C@H](CC(=O)O)NC(=O)[C@H](CC(C)C)NC(=O)[C@H](Cc1c[nH]cn1)NC(=O)[C@H](CS)NC(=O)[C@H](Cc1ccccc1)NC(=O)[C@H](Cc1ccc(O)cc1)NC(=O)[C@@H](NC(=O)[C@H](CS)NC(=O)[C@H](CCC(=O)O)NC(=O)[C@H](CCCCN)NC(=O)[C@H](CC(=O)O)NC(=O)[C@H](CCSC)NC(=O)[C@H](CC(C)C)NC(=O)[C@H](CO)NC(=O)[C@H](CO)NC(=O)[C@H](CS)NC(=O)[C@H](CO)NC(=O)[C@@H](N)CS)C(C)C)C(=O)N[C@H](C)C(=O)N[C@@H](Cc1c[nH]c2ccccc12)C(=O)O
